pEC50: −log10 of the molar value. Numbered stars: 1 amine (or outer) side, 2 acyl side, 3 side chain; on linkers, the order of the positions; unused ones are H or OH. Bridge positions count the residues as written; N and C are the ends. Square brackets hold non-standard residues; d marks the D form. Peptide text beside a SMILES is read from it. * marks the point of attachment. C20 diacid = O=C(O)CCCCCCCCCCCCCCCCCCC(=O)*; γGlu = O=C(O)[C@H](CCC(=O)[*:2])N[*:1]; NMeI = CC[C@H](C)[C@H](NC)C(=O)O; Sar = CNCC(=O)O
How the values were obtained:
[1] = Solubility assessment (turbidity absorbance at 325 nm); assay type: physicochemical; conditions: stock 2 mg/ml diluted 1:1, ambient temperature (typically 25°C), n=1
How it was run: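 Turbidimetric screen across pH 4.0–7.5 in 100 mM acetate, histidine and phosphate buffers. A 2 mg/ml peptide stock (pH 2.5) was diluted 1:1 into each, then A325 measured at ambient temperature; values ≤ 0.02 AU denoted solubility of 1 mg/ml or more.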

[2] = biological target: T1, human calcitonin receptor (hCTR2) (Homo sapiens, UniProt P30988); assay: hCTR2 assay: induction of cAMP (AlphaScreen cAMP Assay kit) in COS7 cells expressing hCTR2; assay type: cell-based
T1 construct: expressed in transfected cells
T1 sequence (P30988 25-474): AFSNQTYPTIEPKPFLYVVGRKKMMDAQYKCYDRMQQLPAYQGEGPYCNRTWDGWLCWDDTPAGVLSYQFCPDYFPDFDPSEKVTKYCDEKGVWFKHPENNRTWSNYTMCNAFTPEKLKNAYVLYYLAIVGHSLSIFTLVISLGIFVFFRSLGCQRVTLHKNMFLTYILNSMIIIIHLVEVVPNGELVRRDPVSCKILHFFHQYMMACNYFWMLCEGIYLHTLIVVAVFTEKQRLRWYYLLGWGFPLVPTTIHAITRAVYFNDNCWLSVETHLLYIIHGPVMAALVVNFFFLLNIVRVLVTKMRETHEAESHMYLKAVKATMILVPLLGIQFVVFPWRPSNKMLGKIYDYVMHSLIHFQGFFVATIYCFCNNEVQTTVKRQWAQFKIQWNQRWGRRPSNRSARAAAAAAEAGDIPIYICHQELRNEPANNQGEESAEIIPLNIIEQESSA
How it was run: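 cAMP read-out by AlphaScreen after cell lysis; EC50 and % efficacy vs pramlintide from 4-parameter logistic fitting. Agonist stimulation: hCTR2-COS7 stable cells, 15 min, 37° C, 100 µM IBMX, 0.1% casein, Tyrode/HEPES pH 7.4.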

Sprague Dawley (SD) rats = assay: Acute food intake and body weight in normal Sprague Dawley rats; assay type: in vivo; conditions: vehicle-corrected, dose 30 nmol/kg sc, once
How it was run: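 Normal male-unspecified SD rats, n = 8 per group, given a single s.c. peptide dose of 30 nmol/kg just before dark phase, with vehicle and positive control groups. Food intake recorded at 0, 4, 7, 10, 24, 48, 72 and 96 h; body weight daily; means ± SEM.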

**Q.** Which “Solubility, Acetate buffer pH 4” value ([1]; 100 mM acetate buffer pH 4.0) does the source give for `CC[C@H](C)[C@@H](C(=O)N[C@@H](CC(C)C)C(=O)N[C@@H](CO)C(=O)N[C@@H](CO)C(=O)N[C@H](C(=O)N[C@@H](CC(N)=O)C(=O)N[C@H](C(=O)NCC(=O)N[C@@H](CO)C(=O)N[C@@H](CC(N)=O)C(=O)N[C@H](C(=O)N1CCC[C@H]1C(N)=O)[C@@H](C)O)C(C)C)[C@@H](C)O)N(C)C(=O)[C@H](C)NC(=O)CN(C)C(=O)[C@H](Cc1ccccc1)NC(=O)[C@H](CC(N)=O)NC(=O)[C@H](CC(N)=O)NC(=O)[C@H](CO)NC(=O)[C@H](CO)NC(=O)[C@H](CCCNC(=N)N)NC(=O)[C@H](Cc1c[nH]cn1)NC(=O)[C@H](CC(C)C)NC(=O)[C@H](Cc1ccccc1)NC(=O)[C@H](CCC(=O)O)NC(=O)[C@H](C)NC(=O)[C@H](CC(C)C)NC(=O)[C@H](CCCNC(=N)N)NC(=O)[C@H](CCC(N)=O)NC(=O)[C@@H](NC(=O)[C@H](C)NC(=O)[C@@H]1CSSC[C@H](NC(=O)[C@H](Cc2c[nH]c3ccccc23)NC(=O)[C@H](CCCNC(=N)N)NC(=O)CC[C@H](NC(=O)CCCCCCCCCCCCCCCCCCC(=O)O)C(=O)O)C(=O)N[C@@H](CC(N)=O)C(=O)N[C@@H]([C@@H](C)O)C(=O)N[C@@H](C)C(=O)N[C@@H]([C@@H](C)O)C(=O)N1)[C@@H](C)O` [Compound 174, [19CD]-isoGlu-RWC()NTATC()ATQRLAEFLHRSSNNF-Gly(Me)-A-Ile(Me)-LSSTNVGSNTP-NH2] ({C20 diacid-γGlu}-RWCNTATCATQRLAEFLHRSSNNF[Sar]A[NMeI]LSSTNVGSNTP-NH2; disulfide 3-8) here?
**A.** The value was “SS (SS indicates solubility ≥ 1mg/ml)”.

**Q.** And the “Solubility, Acetate buffer pH 5” value ([1]; 100 mM acetate buffer pH 5.0)?
**A.** Its value is “SS (SS indicates solubility ≥ 1mg/ml)”.

**Q.** What about the “Solubility, Histidine buffer pH 6” value ([1]; 100 mM histidine buffer pH 6.0) of the same compound?
**A.** The value was “SS (SS indicates solubility ≥ 1mg/ml)”.

**Q.** What about the “Solubility, Histidine buffer pH 7” value ([1]; 100 mM histidine buffer pH 7.0) of the same compound?
**A.** Its value is “SS (SS indicates solubility ≥ 1mg/ml)”.

**Q.** What about the “Solubility, Phosphate buffer pH 6” value ([1]; 100 mM phosphate buffer pH 6.0) of the same compound?
**A.** The value was “SS (SS indicates solubility ≥ 1mg/ml)”.

**Q.** What about the “Solubility, Phosphate buffer pH 7” value ([1]; 100 mM phosphate buffer pH 7.0) of the same compound?
**A.** The value was “SS (SS indicates solubility ≥ 1mg/ml)”.

**Q.** And the “Solubility, Phosphate buffer pH 7.5” value ([1]; 100 mM phosphate buffer pH7.5)?
**A.** The value was “II (II indicates solubility ≤ 1 mg/ml)”.

**Q.** What about the pEC50 [2] of the same compound?
**A.** The pEC50 was 9.74.

**Q.** What about the “Food intake inhibition (%) after 48 hours” value (Sprague Dawley (SD) rats; 48 hours) of the same compound?
**A.** Its value is 99%.

**Q.** What about the “Body weight loss (%) after 96 hours” value (Sprague Dawley (SD) rats; mean ± SEM, 96 hours, n = 8) of the same compound?
**A.** Its value is 8 ± 1.4%.
